From patent US20250163104A1, “MACROCYCLIC IMMUNOMODULATORS” (priority 2021, published 2025)
Where a SMILES comes first, the peptide text is derived from it. Bridges are numbered along the chain shown (N, C = ends). [ ]: non-standard residue; d: D form. The star is where a group is joined. Phe(3-CF3) = N[C@@H](Cc1cccc(C(F)(F)F)c1)C(=O)O; Ala(morpholin-4-yl) = N[C@@H](CN1CCOCC1)C(=O)O; Phe(4-COOH) = N[C@@H](Cc1ccc(C(=O)O)cc1)C(=O)O; Phe(4-CH2NH2) = NCc1ccc(C[C@H](N)C(=O)O)cc1; Bip = N[C@@H](Cc1ccc(-c2ccccc2)cc1)C(=O)O; Phe(3-Me) = Cc1cccc(C[C@H](N)C(=O)O)c1; Val(3-OH) = CC(C)(O)[C@H](N)C(=O)O; Benzoyl(4-F) = O=C(c1ccc(F)cc1)*; 4Pal = N[C@@H](Cc1ccncc1)C(=O)O; Cha = N[C@@H](CC1CCCCC1)C(=O)O; Cit = NC(=O)NCCC[C@H](N)C(=O)O; Carboxymethyl = O=C(O)C*; Orn = NCCC[C@H](N)C(=O)O; Pra = C#CC[C@H](N)C(=O)O; Dab = NCC[C@H](N)C(=O)O; Dap = NC[C@H](N)C(=O)O

What follows are compounds tested against T1, human PD-1 / PD-L1-Ig binding on Jurkat cell line over-expressing human PD-1 (Jurkat-PD-1) (Homo sapiens, UniProt Q15116) (assay: Jurkat-PD-1 Cell Binding High-Content Screening Assay (CBA)). Settings: Jurkat-PD-1 cells, PE-labeled PD-L1-Ig 20 nM final; read-out: Jurkat HPD1_PDL1 IC50.
T1 construct: expressed in transfected cells; host or cells: Jurkat
Type: cell-based
How it was run: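 Cell-bound PE-labeled PD-L1-Ig (20 nM final, 1 h) measured by high-content imaging after fixation and Hoechst 33342 counterstain. Compound was applied first for 2 h at 37° C. to Jurkat cells over-expressing human PD-1 in DMEM with 10% FCS.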

T1 sequence (Q15116 25-288): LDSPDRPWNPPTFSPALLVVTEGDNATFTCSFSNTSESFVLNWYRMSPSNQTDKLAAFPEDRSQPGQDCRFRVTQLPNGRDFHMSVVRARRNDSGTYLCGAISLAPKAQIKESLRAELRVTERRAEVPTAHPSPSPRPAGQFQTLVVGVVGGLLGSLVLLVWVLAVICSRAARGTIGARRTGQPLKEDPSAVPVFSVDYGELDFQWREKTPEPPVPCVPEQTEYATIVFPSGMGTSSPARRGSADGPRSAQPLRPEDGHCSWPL

Row | IC50 [nM] | Compound
1 | 10.4 | CCC(C)[C@@H]1NC(=O)[C@H](Cc2ccc(-c3ccccc3)cc2)NC(=O)[C@H](C(C)C)NC(=O)[C@H](Cc2cccc(C)c2)NC(=O)[C@H](CC(=O)O)NC(=O)[C@H](Cc2ccc(C(=O)O)cc2)NC(=O)[C@H](Cc2ccncc2)NC(=O)CSC[C@@H](C(=O)N[C@@H](CC(N)=O)C(N)=O)NC(=O)[C@H]([C@@H](C)O)NC(=O)[C@H](C(C)C)NC(=O)[C@H](CC2CCCCC2)NC(=O)[C@H](CCN)NC(=O)[C@@H](CC(C)C)NC(=O)[C@H](CCCN)NC1=O (stereo partly drawn) [Compound 2297]
2 | 7.7 | C#CC[C@H](NC(=O)[C@@H](C)NC(=O)[C@@H]1CSCC(=O)N[C@@H](Cc2c[nH]cn2)C(=O)N[C@@H](Cc2ccc(OCC(=O)O)cc2)C(=O)N[C@@H](CC(=O)O)C(=O)N[C@@H](Cc2c[nH]c3ccccc23)C(=O)N[C@@H](C(C)C)C(=O)N[C@@H](Cc2ccc(-c3ccccc3)cc2)C(=O)N[C@@H](C(C)C)C(=O)N[C@@H](CCCN)C(=O)N[C@H](CC(C)C)C(=O)N[C@@H](CCN)C(=O)N[C@@H](CC2CCCCC2)C(=O)N[C@@H](C(C)(C)O)C(=O)N[C@@H](CO)C(=O)N1)C(N)=O [Compound 2326] ({CH2CO}-HY(Carboxymethyl)DWV[Bip]V[Orn][dL][Dab][Cha][Val(3-OH)]SC[dA][Pra]-NH2; thioether N-14)
3 | 17.6 | CC(C)C[C@H]1NC(=O)[C@H](CCCN)NC(=O)[C@H](CCC(=O)O)NC(=O)[C@H](Cc2ccc(-c3ccccc3)cc2)NC(=O)[C@H](C(C)C)NC(=O)[C@H](Cc2c[nH]c3ccccc23)NC(=O)[C@H](CC(=O)O)NC(=O)[C@H](Cc2ccc(-c3cccc(C(=O)O)c3)cc2)NC(=O)[C@H](Cc2ccc(OCC(=O)O)cc2)NC(=O)CSC[C@@H](C(=O)N[C@@H](C)C(N)=O)NC(=O)[C@H]([C@@H](C)O)NC(=O)[C@H](C(C)C)NC(=O)[C@H](CC2CCCCC2)NC(=O)[C@H](CCN)NC1=O [Compound 2163]
4 | 17.4 | CC(C)C[C@H]1NC(=O)[C@H](CN)NC(=O)[C@H](C(C)C)NC(=O)[C@H](Cc2ccc(-c3ccccc3)cc2)NC(=O)[C@H](C(C)C)NC(=O)[C@H](Cc2c[nH]c3ccccc23)NC(=O)[C@H](CC(=O)O)NC(=O)[C@H](Cc2ccncc2)NC(=O)[C@H](CN)NC(=O)CSC[C@@H](C(=O)NCC(N)=O)NC(=O)[C@H](CO)NC(=O)[C@H](C(C)C)NC(=O)[C@H](CC2CCCCC2)NC(=O)[C@H](CC(N)=O)NC1=O [Compound 1651] ({CH2CO}-[Dap][4Pal]DWV[Bip]V[Dap][dL]N[Cha]VSCG-NH2; thioether N-14)
5 | 27.5 | Cc1cccc(C[C@@H]2NC(=O)[C@H](CC(=O)O)NC(=O)[C@H](Cc3ccc(OCC(=O)O)cc3)NC(=O)[C@H](CCCNC(=N)N)NC(=O)CSC[C@@H](C(N)=O)NC(=O)[C@H]([C@@H](C)O)NC(=O)[C@H](C(C)C)NC(=O)[C@H](CC3CCCCC3)NC(=O)[C@H](CCN)NC(=O)[C@@H](CC(C)C)NC(=O)[C@H](CCCN)NC(=O)[C@H](Cc3ccc(OCC(=O)O)cc3)NC(=O)[C@H](Cc3ccc(-c4ccccc4)cc3)NC(=O)[C@H](Cc3ccc(O)cc3)NC2=O)c1 [Compound 2056] ({CH2CO}-RY(Carboxymethyl)D[Phe(3-Me)]Y[Bip]Y(Carboxymethyl)[Orn][dL][Dab][Cha]VTC-NH2; thioether N-14)
6 | 39.4 | Cc1cccc(C[C@@H]2NC(=O)[C@H](CC(=O)O)NC(=O)[C@H](Cc3ccc(OCC(=O)O)cc3)NC(=O)[C@H](CCCNC(=N)N)NC(=O)CSC[C@@H](C(N)=O)NC(=O)[C@H](CCCNC(=O)c3ccc(F)cc3)NC(=O)[C@H](C(C)C)NC(=O)[C@H](CC3CCCCC3)NC(=O)[C@H](CCN)NC(=O)[C@@H](CC(C)C)NC(=O)[C@H](CCCN)NC(=O)[C@H](Cc3ccc(OCC(=O)O)cc3)NC(=O)[C@H](Cc3ccc(-c4ccccc4)cc3)NC(=O)[C@H](Cc3ccc(O)cc3)NC2=O)c1 [Compound 2053] ({CH2CO}-RY(Carboxymethyl)D[Phe(3-Me)]Y[Bip]Y(Carboxymethyl)[Orn][dL][Dab][Cha]V[Orn](Benzoyl(4-F))C-NH2; thioether N-14)
7 | 33.5 | Cc1cccc(C[C@@H]2NC(=O)[C@H](CC(=O)O)NC(=O)[C@H](Cc3ccc(OCC(=O)O)cc3)NC(=O)[C@H]([C@@H](C)O)NC(=O)CSC[C@@H](C(N)=O)NC(=O)[C@H](CCC(N)=O)NC(=O)[C@H](C(C)C)NC(=O)[C@H](CC3CCCCC3)NC(=O)[C@H](CCN)NC(=O)[C@@H](CC(C)C)NC(=O)[C@H](CCCN)NC(=O)[C@H](Cc3ccc(OCC(=O)O)cc3)NC(=O)[C@H](Cc3ccc(-c4ccccc4)cc3)NC(=O)[C@H](Cc3ccc(OCC(=O)O)cc3)NC2=O)c1 [Compound 1799] ({CH2CO}-TY(Carboxymethyl)D[Phe(3-Me)]Y(Carboxymethyl)[Bip]Y(Carboxymethyl)[Orn][dL][Dab][Cha]VQC-NH2; thioether N-14)
8 | 2.8 | CC(C)C[C@H]1NC(=O)[C@H](CCCN)NC(=O)[C@H](Cc2ccc(C(=O)O)cc2)NC(=O)[C@H](Cc2ccc(-c3ccccc3)cc2)NC(=O)[C@H](Cc2ccc(CN)cc2)NC(=O)[C@H](Cc2cccc(C(F)(F)F)c2)NC(=O)[C@H](CC(=O)O)NC(=O)[C@H](Cc2ccc(C(=O)O)cc2)NC(=O)[C@H](CN2CCOCC2)NC(=O)CSC[C@@H](C(=O)N[C@@H](CCN)C(N)=O)NC(=O)[C@H](CCC(=O)O)NC(=O)[C@H](C(C)C)NC(=O)[C@H](CC2CCCCC2)NC(=O)[C@H](CCN)NC1=O [Example 2747] ({CH2CO}-[Ala(morpholin-4-yl)][Phe(4-COOH)]D[Phe(3-CF3)][Phe(4-CH2NH2)][Bip][Phe(4-COOH)][Orn][dL][Dab][Cha]VEC[Dab]-NH2; thioether N-14)
9 | 1.2 | CC(C)C[C@H]1NC(=O)[C@H](CCCN)NC(=O)[C@H](Cc2ccc(C(=O)O)cc2)NC(=O)[C@H](Cc2ccc(-c3ccccc3)cc2)NC(=O)[C@H](Cc2ccc(C(=O)O)cc2)NC(=O)[C@H](Cc2cccc(C(F)(F)F)c2)NC(=O)[C@H](CC(=O)O)NC(=O)[C@H](Cc2ccc(C(=O)O)cc2)NC(=O)[C@H](CN2CCOCC2)NC(=O)CSC[C@@H](C(=O)N[C@@H](CCN)C(N)=O)NC(=O)[C@H](CO)NC(=O)[C@H](C(C)(C)O)NC(=O)[C@H](CC2CCCCC2)NC(=O)[C@H](CCN)NC1=O [Example 2710] ({CH2CO}-[Ala(morpholin-4-yl)][Phe(4-COOH)]D[Phe(3-CF3)][Phe(4-COOH)][Bip][Phe(4-COOH)][Orn][dL][Dab][Cha][Val(3-OH)]SC[Dab]-NH2; thioether N-14)

The remaining lines, values behind:

Row | Compound | IC50 [nM]
10 | Cc1cccc(C[C@@H]2NC(=O)[C@H](CC(=O)O)NC(=O)[C@H](Cc3ccncc3)NC(=O)[C@H](Cc3ccc(OCC(=O)O)cc3)NC(=O)CSC[C@@H](C(=O)N[C@@H](C)C(N)=O)NC(=O)[C@H]([C@@H](C)O)NC(=O)[C@H](C(C)C)NC(=O)[C@H](CC3CCCCC3)NC(=O)[C@H](CCN)NC(=O)[C@@H](CC(C)C)NC(=O)[C@H](CCCN)NC(=O)[C@H](CCCNC(N)=O)NC(=O)[C@H](Cc3ccc(-c4ccccc4)cc3)NC(=O)[C@H](C(C)C)NC2=O)c1 [Compound 1325] ({CH2CO}-Y(Carboxymethyl)[4Pal]D[Phe(3-Me)]V[Bip][Cit][Orn][dL][Dab][Cha]VTCA-NH2; thioether N-14) | 3.1
11 | CC(C)C[C@H]1NC(=O)[C@H](CCCN)NC(=O)[C@H](C(C)C)NC(=O)[C@H](Cc2ccc(-c3ccccc3)cc2)NC(=O)[C@H](C(C)C)NC(=O)[C@H](Cc2c[nH]c3ccccc23)NC(=O)[C@H](CC(=O)O)NC(=O)[C@H](Cc2ccc(OCC(=O)O)cc2)NC(=O)[C@H](Cc2ccncc2)NC(=O)CSC[C@@H](C(=O)N[C@@H](C)C(N)=O)NC(=O)[C@H]([C@@H](C)O)NC(=O)[C@H](C(C)C)NC(=O)[C@H](CC2CCCCC2)NC(=O)[C@H](Cc2cnc[nH]2)NC1=O [Compound 1607] | 14.6
12 | Cc1cccc(C[C@@H]2NC(=O)[C@H](CC(=O)O)NC(=O)[C@H](Cc3ccc(C(=O)O)cc3)NC(=O)[C@H](Cc3ccncc3)NC(=O)CSC[C@@H](C(=O)N[C@@H](C)C(N)=O)NC(=O)[C@H]([C@@H](C)O)NC(=O)[C@H](C(C)C)NC(=O)[C@H](CC3CCCCC3)NC(=O)[C@H](CCN)NC(=O)[C@@H](CC(C)C)NC(=O)[C@H](CCCN)NC(=O)[C@H](C(C)(C)C)NC(=O)[C@H](Cc3ccc(-c4ccccc4)cc3)NC(=O)[C@H](C(C)C)NC2=O)c1 [Compound 1618] | 22.7
13 | CC(C)C[C@@H]1NC(=O)[C@H](CCN)NC(=O)[C@@H](CC(C)C)NC(=O)[C@H](CCN)NC(=O)[C@H](C(C)C)NC(=O)[C@H](Cc2ccc(-c3ccccc3)cc2)NC(=O)[C@H](C(C)C)NC(=O)[C@H](Cc2c[nH]c3ccccc23)NC(=O)[C@H](CC(=O)O)NC(=O)[C@H](Cc2ccc(O)cc2)NC(=O)[C@H](CC(N)=O)NC(=O)CSC[C@@H](C(=O)N[C@@H](C)C(N)=O)NC(=O)[C@H]([C@@H](C)O)NC(=O)[C@H](C(C)C)NC1=O [Compound 1029] ({CH2CO}-NYDWV[Bip]V[Dab][dL][Dab]LVTCA-NH2; thioether N-14) | 5.4
14 | CC(C)C[C@@H]1NC(=O)[C@H](Cc2c[nH]c3ccccc23)NC(=O)[C@H](CC(=O)O)NC(=O)[C@H](Cc2ccc(O)cc2)NC(=O)[C@H](Cc2ccccc2)NC(=O)CSC[C@@H](C(=O)NCC(N)=O)NC(=O)[C@H](CO)NC(=O)[C@H](C(C)C)NC(=O)[C@H](CC(C)C)NC(=O)[C@H](CCN)NC(=O)[C@@H](CC(C)C)NC(=O)[C@H](CCN)NC(=O)[C@H](C(C)C)NC(=O)[C@H](Cc2ccc(-c3ccccc3)cc2)NC1=O [Compound 1063] ({CH2CO}-FYDWL[Bip]V[Dab][dL][Dab]LVSCG-NH2; thioether N-14) | 19.8
15 | CC(C)C[C@H]1NC(=O)[C@H](CCCN)NC(=O)[C@H](CCCN)NC(=O)[C@H](Cc2ccc(-c3ccccc3)cc2)NC(=O)[C@H](C(C)C)NC(=O)[C@H](Cc2c[nH]c3ccccc23)NC(=O)[C@H](CC(=O)O)NC(=O)[C@H](Cc2ccc(OCC(=O)O)cc2)NC(=O)[C@H](Cc2ccncc2)NC(=O)CSC[C@@H](C(=O)N[C@@H](C)C(N)=O)NC(=O)[C@H]([C@@H](C)O)NC(=O)[C@H](C(C)C)NC(=O)[C@H](CC2CCCCC2)NC(=O)[C@H](CCN)NC1=O [Compound 1390] | 16.5
